Experiments:
Assay in all cases: biochemical
Type in all cases: binding
[1] = biological target: panel of 468 diverse kinases (Homo sapiens, UniProt O60285); settings: ARK5; 1000 nM; read-out: Percent Control
[2] = biological target: panel of 468 diverse kinases (Homo sapiens, UniProt O75747); settings: PIK3C2G; 1000 nM; read-out: Percent Control
[3] = biological target: panel of 468 diverse kinases (Homo sapiens, UniProt O94921); settings: PFTK1; 1000 nM; read-out: Percent Control
[4] = biological target: panel of 468 diverse kinases (Homo sapiens, UniProt P00519, Y253F); settings: ABL1(Y253F)-phosphorylated; 1000 nM; read-out: Percent Control
[5] = biological target: panel of 468 diverse kinases (Homo sapiens, UniProt P00533); settings: EGFR; 1000 nM; read-out: Percent Control
[6] = biological target: panel of 468 diverse kinases (Homo sapiens, UniProt P00533, L861Q); settings: EGFR(L861Q); 1000 nM; read-out: Percent Control
[7] = biological target: panel of 468 diverse kinases (Homo sapiens, UniProt P04626); settings: ERBB2; 1000 nM; read-out: Percent Control
[8] = biological target: panel of 468 diverse kinases (Homo sapiens, UniProt P08581, M1250T); settings: MET(M1250T); 1000 nM; read-out: Percent Control
[9] = biological target: panel of 468 diverse kinases (Homo sapiens, UniProt P10721, V559D/V654A); settings: KIT(V559D,V654A); 1000 nM; read-out: Percent Control
[10] = biological target: panel of 468 diverse kinases (Homo sapiens, UniProt P21802); settings: FGFR2; 1000 nM; read-out: Percent Control
[11] = biological target: panel of 468 diverse kinases (Homo sapiens, UniProt P36888, K663Q); settings: FLT3(K663Q); 1000 nM; read-out: Percent Control
[12] = biological target: panel of 468 diverse kinases (Homo sapiens, UniProt P42338); settings: PIK3CB; 1000 nM; read-out: Percent Control
[13] = biological target: panel of 468 diverse kinases (Homo sapiens, UniProt P49759); settings: CLK1; 1000 nM; read-out: Percent Control
[14] = biological target: panel of 468 diverse kinases (Homo sapiens, UniProt P49841); settings: GSK3B; 1000 nM; read-out: Percent Control
[15] = biological target: panel of 468 diverse kinases (Homo sapiens, UniProt P50613); settings: CDK7; 1000 nM; read-out: Percent Control
[16] = biological target: panel of 468 diverse kinases (Homo sapiens, UniProt Q02156); settings: PRKCE; 1000 nM; read-out: Percent Control
[17] = biological target: panel of 468 diverse kinases (Homo sapiens, UniProt Q08345); settings: DDR1; 1000 nM; read-out: Percent Control
[18] = biological target: panel of 468 diverse kinases (Homo sapiens, UniProt Q13882); settings: BRK; 1000 nM; read-out: Percent Control
[19] = biological target: panel of 468 diverse kinases (Homo sapiens, UniProt Q14164); settings: IKK-epsilon; 1000 nM; read-out: Percent Control
[20] = biological target: panel of 468 diverse kinases (Homo sapiens, UniProt Q15208); settings: NDR1; 1000 nM; read-out: Percent Control
[21] = biological target: panel of 468 diverse kinases (Homo sapiens, UniProt Q16816); settings: PHKG1; 1000 nM; read-out: Percent Control
[22] = biological target: panel of 468 diverse kinases (Homo sapiens, UniProt Q8N4C8); settings: MINK; 1000 nM; read-out: Percent Control
[23] = biological target: panel of 468 diverse kinases (Homo sapiens, UniProt Q8NG66); settings: NEK11; 1000 nM; read-out: Percent Control
[24] = biological target: panel of 468 diverse kinases (Homo sapiens, UniProt Q8NI60); settings: ADCK3; 1000 nM; read-out: Percent Control
[25] = biological target: panel of 468 diverse kinases (Homo sapiens, UniProt Q8WU08); settings: YANK1; 1000 nM; read-out: Percent Control
[26] = biological target: panel of 468 diverse kinases (Homo sapiens, UniProt Q96GD4); settings: AURKB; 1000 nM; read-out: Percent Control
[27] = biological target: panel of 468 diverse kinases (Homo sapiens, UniProt Q96Q40); settings: PFTAIRE2; 1000 nM; read-out: Percent Control
[28] = biological target: panel of 468 diverse kinases (Homo sapiens, UniProt Q9BYT3); settings: STK33; 1000 nM; read-out: Percent Control
[29] = biological target: panel of 468 diverse kinases (Homo sapiens, UniProt Q9HAZ1); settings: CLK4; 1000 nM; read-out: Percent Control
[30] = biological target: panel of 468 diverse kinases (Homo sapiens, UniProt Q9HBH9); settings: MKNK2; 1000 nM; read-out: Percent Control
[31] = biological target: panel of 468 diverse kinases (Homo sapiens, UniProt Q9Y2U5); settings: MAP3K2; 1000 nM; read-out: Percent Control

panel of 468 diverse kinases (Homo sapiens, UniProt Q8NI60), sequence (Q8NI60 163-647 limits assumed): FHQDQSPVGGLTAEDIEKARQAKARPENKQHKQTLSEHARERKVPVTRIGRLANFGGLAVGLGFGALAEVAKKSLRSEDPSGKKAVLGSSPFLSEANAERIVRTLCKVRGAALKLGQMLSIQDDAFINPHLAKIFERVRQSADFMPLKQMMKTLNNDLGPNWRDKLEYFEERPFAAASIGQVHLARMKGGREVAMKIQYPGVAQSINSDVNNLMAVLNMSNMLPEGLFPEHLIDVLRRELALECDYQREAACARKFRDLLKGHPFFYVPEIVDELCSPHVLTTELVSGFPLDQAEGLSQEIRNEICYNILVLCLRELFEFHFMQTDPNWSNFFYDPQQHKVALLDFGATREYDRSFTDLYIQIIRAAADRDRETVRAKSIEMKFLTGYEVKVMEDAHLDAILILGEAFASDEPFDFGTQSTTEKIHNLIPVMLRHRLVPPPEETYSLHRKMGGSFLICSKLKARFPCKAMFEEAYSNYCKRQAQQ
panel of 468 diverse kinases (Homo sapiens, UniProt Q15208), sequence (Q15208 2-465 limits assumed): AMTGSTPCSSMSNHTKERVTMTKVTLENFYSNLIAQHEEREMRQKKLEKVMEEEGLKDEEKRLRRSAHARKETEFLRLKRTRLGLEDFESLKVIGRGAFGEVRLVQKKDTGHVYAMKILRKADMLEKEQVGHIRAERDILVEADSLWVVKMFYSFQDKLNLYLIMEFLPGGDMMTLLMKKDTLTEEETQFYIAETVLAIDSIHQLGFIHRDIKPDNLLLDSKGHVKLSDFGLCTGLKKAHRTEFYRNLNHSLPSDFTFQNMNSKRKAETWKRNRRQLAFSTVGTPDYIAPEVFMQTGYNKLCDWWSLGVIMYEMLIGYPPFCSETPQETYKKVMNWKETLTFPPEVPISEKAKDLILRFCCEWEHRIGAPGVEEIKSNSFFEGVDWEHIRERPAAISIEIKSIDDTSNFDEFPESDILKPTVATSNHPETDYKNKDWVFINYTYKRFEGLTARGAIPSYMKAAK
panel of 468 diverse kinases (Homo sapiens, UniProt P21802), sequence (P21802 22-821 limits assumed): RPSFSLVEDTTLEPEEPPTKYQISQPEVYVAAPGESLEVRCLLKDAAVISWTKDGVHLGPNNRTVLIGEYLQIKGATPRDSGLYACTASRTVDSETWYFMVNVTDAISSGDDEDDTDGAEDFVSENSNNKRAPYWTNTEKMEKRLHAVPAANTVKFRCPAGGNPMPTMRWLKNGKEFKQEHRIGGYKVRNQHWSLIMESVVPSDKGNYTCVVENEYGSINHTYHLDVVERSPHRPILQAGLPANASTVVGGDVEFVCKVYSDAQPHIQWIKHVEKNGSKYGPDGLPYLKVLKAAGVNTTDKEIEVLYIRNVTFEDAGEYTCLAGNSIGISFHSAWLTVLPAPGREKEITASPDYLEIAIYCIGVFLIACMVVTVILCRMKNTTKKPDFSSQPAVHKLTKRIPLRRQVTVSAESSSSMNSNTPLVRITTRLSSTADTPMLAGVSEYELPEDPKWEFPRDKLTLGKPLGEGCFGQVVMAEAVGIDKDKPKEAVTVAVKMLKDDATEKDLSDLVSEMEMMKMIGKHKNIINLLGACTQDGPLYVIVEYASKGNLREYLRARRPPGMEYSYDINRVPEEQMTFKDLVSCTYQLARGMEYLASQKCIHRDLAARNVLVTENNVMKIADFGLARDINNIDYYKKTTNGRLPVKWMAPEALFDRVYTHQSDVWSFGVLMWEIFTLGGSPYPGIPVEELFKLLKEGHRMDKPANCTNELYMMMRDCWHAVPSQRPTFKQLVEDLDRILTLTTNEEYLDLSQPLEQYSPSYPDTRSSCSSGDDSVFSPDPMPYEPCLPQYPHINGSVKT
panel of 468 diverse kinases (Homo sapiens, UniProt P04626), sequence (P04626 23-1255 limits assumed): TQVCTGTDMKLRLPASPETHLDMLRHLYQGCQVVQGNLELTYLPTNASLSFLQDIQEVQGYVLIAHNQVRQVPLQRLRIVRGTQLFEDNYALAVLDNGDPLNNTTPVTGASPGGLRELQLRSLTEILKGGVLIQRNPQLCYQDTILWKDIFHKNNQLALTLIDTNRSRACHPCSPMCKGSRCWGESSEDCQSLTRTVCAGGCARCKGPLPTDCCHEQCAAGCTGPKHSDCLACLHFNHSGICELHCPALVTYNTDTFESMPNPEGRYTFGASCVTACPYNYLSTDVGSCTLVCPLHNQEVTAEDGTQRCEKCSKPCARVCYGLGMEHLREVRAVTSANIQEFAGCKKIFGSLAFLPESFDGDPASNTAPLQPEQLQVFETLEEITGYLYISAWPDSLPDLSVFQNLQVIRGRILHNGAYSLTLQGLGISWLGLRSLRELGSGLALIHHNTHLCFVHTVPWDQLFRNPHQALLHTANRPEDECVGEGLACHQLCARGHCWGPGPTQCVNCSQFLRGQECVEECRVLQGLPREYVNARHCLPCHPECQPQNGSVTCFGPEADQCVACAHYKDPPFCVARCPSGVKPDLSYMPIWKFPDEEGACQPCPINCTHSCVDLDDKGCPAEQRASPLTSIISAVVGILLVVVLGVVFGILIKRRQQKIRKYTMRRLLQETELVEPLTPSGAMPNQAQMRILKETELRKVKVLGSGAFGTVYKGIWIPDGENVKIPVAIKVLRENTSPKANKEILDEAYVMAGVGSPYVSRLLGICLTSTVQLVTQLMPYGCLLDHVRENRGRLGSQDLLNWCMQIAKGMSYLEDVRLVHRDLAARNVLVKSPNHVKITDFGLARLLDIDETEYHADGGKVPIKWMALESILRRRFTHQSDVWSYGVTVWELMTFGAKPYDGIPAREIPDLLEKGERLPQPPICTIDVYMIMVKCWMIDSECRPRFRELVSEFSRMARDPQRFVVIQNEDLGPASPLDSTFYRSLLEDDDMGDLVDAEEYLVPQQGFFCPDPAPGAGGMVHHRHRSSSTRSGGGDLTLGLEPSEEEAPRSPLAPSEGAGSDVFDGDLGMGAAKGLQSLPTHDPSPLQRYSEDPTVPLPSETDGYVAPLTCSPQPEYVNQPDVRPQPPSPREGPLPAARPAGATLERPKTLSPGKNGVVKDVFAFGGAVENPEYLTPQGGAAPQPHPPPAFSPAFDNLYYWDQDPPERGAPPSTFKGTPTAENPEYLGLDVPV
panel of 468 diverse kinases (Homo sapiens, UniProt P00533, L861Q), sequence (P00533 25-1210 L861Q limits assumed): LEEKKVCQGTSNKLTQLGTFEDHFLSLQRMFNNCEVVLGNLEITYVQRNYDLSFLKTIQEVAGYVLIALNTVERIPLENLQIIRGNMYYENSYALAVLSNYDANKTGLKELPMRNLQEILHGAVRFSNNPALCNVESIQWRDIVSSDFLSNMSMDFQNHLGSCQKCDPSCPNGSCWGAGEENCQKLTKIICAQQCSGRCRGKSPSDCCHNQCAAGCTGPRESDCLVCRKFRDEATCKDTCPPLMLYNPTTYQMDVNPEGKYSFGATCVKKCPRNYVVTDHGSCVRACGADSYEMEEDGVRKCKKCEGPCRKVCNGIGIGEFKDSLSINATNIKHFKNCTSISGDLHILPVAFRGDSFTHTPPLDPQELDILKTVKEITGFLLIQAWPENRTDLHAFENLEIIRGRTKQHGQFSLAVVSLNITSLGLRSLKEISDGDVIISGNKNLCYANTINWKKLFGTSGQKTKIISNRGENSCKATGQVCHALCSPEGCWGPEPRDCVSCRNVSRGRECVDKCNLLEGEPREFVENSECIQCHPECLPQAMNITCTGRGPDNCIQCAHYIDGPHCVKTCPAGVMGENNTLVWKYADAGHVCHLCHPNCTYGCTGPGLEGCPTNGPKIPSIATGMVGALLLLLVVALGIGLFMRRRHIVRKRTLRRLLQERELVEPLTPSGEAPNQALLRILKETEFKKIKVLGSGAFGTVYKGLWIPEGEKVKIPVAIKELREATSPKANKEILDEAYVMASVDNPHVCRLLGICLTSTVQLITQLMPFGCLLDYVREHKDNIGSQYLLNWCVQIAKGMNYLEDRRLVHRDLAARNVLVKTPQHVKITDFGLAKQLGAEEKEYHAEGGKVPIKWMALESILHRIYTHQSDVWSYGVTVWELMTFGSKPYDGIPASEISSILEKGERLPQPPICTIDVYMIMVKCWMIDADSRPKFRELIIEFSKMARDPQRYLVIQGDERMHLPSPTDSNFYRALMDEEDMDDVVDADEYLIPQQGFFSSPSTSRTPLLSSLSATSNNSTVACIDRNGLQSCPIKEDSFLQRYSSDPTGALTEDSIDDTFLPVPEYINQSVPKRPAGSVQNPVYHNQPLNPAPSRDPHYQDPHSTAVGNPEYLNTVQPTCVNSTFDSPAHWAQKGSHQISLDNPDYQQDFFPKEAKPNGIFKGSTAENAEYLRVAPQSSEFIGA
panel of 468 diverse kinases (Homo sapiens, UniProt P50613), sequence (P50613 2-346 limits assumed): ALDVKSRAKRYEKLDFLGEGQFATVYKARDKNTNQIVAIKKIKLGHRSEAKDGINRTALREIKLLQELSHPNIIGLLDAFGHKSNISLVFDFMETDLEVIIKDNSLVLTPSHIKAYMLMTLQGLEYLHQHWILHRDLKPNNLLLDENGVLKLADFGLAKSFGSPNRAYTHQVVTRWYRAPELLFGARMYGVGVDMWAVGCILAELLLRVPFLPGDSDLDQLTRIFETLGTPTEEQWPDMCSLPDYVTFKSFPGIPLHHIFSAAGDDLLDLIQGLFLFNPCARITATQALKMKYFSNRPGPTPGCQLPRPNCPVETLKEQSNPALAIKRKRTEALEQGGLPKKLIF
panel of 468 diverse kinases (Homo sapiens, UniProt Q8WU08), sequence (Q8WU08 2-396 limits assumed): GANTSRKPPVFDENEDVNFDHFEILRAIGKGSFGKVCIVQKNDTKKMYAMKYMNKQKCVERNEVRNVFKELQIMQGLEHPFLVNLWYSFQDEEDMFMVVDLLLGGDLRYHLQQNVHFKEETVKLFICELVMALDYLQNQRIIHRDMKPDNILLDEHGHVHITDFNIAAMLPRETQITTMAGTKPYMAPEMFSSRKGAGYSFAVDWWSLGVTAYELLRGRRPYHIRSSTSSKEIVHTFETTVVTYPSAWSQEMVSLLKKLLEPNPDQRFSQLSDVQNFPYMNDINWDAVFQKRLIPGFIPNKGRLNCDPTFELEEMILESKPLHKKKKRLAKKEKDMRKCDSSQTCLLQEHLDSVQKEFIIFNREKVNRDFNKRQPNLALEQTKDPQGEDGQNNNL

SMILES: COc1cc2nc(NC3CC3)nc(NC3CCN(C(C)C)CC3)c2cc1OC [Formula IV]
- remaining activity at 1 µM [1]: 98%
- remaining activity at 1 µM [2]: 100%
- remaining activity at 1 µM [3]: 98%
- remaining activity at 1 µM [4]: 100%
- remaining activity at 1 µM [5]: 97%
- remaining activity at 1 µM [6]: 75%
- remaining activity at 1 µM [7]: 100%
- remaining activity at 1 µM [8]: 88%
- remaining activity at 1 µM [9]: 76%
- remaining activity at 1 µM [10]: 100%
- remaining activity at 1 µM [11]: 98%
- remaining activity at 1 µM [12]: 71%
- remaining activity at 1 µM [13]: 96%
- remaining activity at 1 µM [14]: 72%
- remaining activity at 1 µM [15]: 69%
- remaining activity at 1 µM [16]: 100%
- remaining activity at 1 µM [17]: 88%
- remaining activity at 1 µM [18]: 100%
- remaining activity at 1 µM [19]: 84%
- remaining activity at 1 µM [20]: 81%
- remaining activity at 1 µM [21]: 90%
- remaining activity at 1 µM [22]: 69%
- remaining activity at 1 µM [23]: 42%
- remaining activity at 1 µM [24]: 100%
- remaining activity at 1 µM [25]: 95%
- remaining activity at 1 µM [26]: 84%
- remaining activity at 1 µM [27]: 90%
- remaining activity at 1 µM [28]: 92%
- remaining activity at 1 µM [29]: 69%
- remaining activity at 1 µM [30]: 82%
- remaining activity at 1 µM [31]: 65%

Source: patent US11542240B2, “STK19 inhibitors for treatment of cancer” (TRUSTEES OF BOSTON UNIVERSITY, priority 2018, dated 2023)
